Data on seven molecules can be found in PMC3944923, “Intestinal Transportations of Main Chemical Compositions of Polygoni Multiflori Radix in Caco-2 Cell Model” (Evidence-based Complementary and Alternative Medicine : eCAM, 2014).

“Also recorded” adds a separate entry of the source.

Data set [1] can be described thus: Caco-2 cell monolayer transport (absorption, AP → BL), HPLC-DAD. The following applies: human.
Method: The cells were left to grow for 21 days to reach confluence and differentiation, so that Caco-2 cells were fully differentiated in this assay and used for further experiments.
Flux describes the movement of a substance across polarized Caco-2 monolayers either in absorptive (apical → basolateral, AP → BL) or secretary direction (basolateral → apical, BL → AP). Absorption assay was carried out in this research.
To determine the concentration of corresponding constituents in both AP and BL sides, the lyophilized samples of AP and BL sides were dissolved in quantitative methanol by ultrasound for 20 min and then filtered by 0.45 μm filtration membranes.
A further data set relates to Caco-2 cell monolayer. Described as above. To be noted: for absorption by human intestinal epithelial cells, judged from P app against atenolol and propranolol: Caco-2 monolayer, AP → BL; for recovery rate (in words): Caco-2 assay.
[2] abbreviates: Caco-2, Recovery rate, total compound in donor and receiver at end / initial compound, Caco-2, 90 min, Mean ± SD, n ≥ 3.

As usually defined, the Papp is the rate of passage across a membrane or cell layer, normalised by area and donor concentration. Regarding `O=C1c2cccc(O)c2C(=O)c2c(O)cc(CO)cc21` [AE, aloe-emodin], in data set [1] (Caco-2), the Papp at 1.5 h was found to be 0.0195 ×10⁻⁶ cm/s and the recovery at 1.5 h was determined as 42.4 ± 6.32%. In the data set on Caco-2 cell monolayer, the “absorption by human intestinal epithelial cells, judged from P app against atenolol and propranolol” value is “partly absorbed”.
In data set [1] (Caco-2), `Cc1cc(O)c2c(c1)C(=O)c1cc(O)cc(O)c1C2=O` [EN, emodin] gave a Papp at 1.5 h of 0.00248 ×10⁻⁶ cm/s and a recovery at 1.5 h of 14.5 ± 2.5%. The “recovery rate (in words)” value in the data set on Caco-2 cell monolayer was “poor recovery rates; also recorded: low recovery rates”.
Turning to `OC[C@H]1O[C@@H](Oc2cc(O)cc(/C=C/c3ccc(O)cc3)c2)[C@H](O)[C@@H](O)[C@@H]1O` [PL, polydatin], in data set [1] (Caco-2), the Papp at 1.5 h came out at 0.00492 ×10⁻⁶ cm/s. For the same molecule, the recovery at 1.5 h in data set [1] (setting [2]) stood at 59.9 ± 9.9%. Also, the “absorption by human intestinal epithelial cells, judged from P app against atenolol and propranolol” value with Caco-2 cell monolayer is recorded as “hardly absorbed”.
For the molecule `CC(C)NCC(O)COc1cccc2ccccc12` (stereo not drawn) [PR, Propranolol, reference compound], the Papp at 1.5 h in data set [1] (Caco-2) was determined as 0.0607 ×10⁻⁶ cm/s. In addition, the recovery at 1.5 h in data set [1] (setting [2]) is about 100%.
`Oc1ccc(/C=C/c2cc(O)cc(O)c2)cc1` [RL, resveratrol] displayed an apparent permeability (Papp) at 1.5 h in data set [1] (Caco-2) of 0.0178 ×10⁻⁶ cm/s. The molecule further yielded a recovery at 1.5 h in data set [1] (setting [2]) of 62.4 ± 6.21%. Further, the “absorption by human intestinal epithelial cells, judged from P app against atenolol and propranolol” value in the data set with Caco-2 cell monolayer was “partly absorbed”.
For `O=C(O)c1cc(O)c2c(c1)C(=O)c1cccc(O)c1C2=O` [RN, rhein], in that order: 0.0171 ×10⁻⁶ cm/s, about 100% and “partly absorbed”.
On to `OC[C@H]1O[C@@H](Oc2c(O)cc(O)cc2/C=C/c2ccc(O)cc2)[C@H](O)[C@@H](O)[C@@H]1O` [TSG, 2,3,5,4′-tetrahydroxystilbene-2-O-β-D-glucoside], for which the Papp at 1.5 h in data set [1] (Caco-2) was found to be 0.00237 ×10⁻⁶ cm/s. The same molecule displayed a recovery at 1.5 h in data set [1] (setting [2]) of 17.4 ± 1.6%. Moreover, in the data set on Caco-2 cell monolayer, the “recovery rate (in words)” value was “poor recovery rates; also recorded: low recovery rates”; the “absorption by human intestinal epithelial cells, judged from P app against atenolol and propranolol” value is “hardly absorbed; also recorded: poorly absorbed”.
